The values below come from patent publication US11358936B2, “Lysyl oxidase-like 2 inhibitors and uses thereof” (PharmAkea, Inc., priority 2015, dated 2022).

The test concerns the target human LOXL2 (Homo sapiens (Human), UniProt Q9Y4K0). Description: Human LOXL2 Amine Oxidase Activity Assay (Amplex Red fluorescence). The test is classed as biochemical. To be noted: 2 h at 37° C. preincubation, DAP substrate. Here is the method: LOXL2 amine oxidase activity is evaluated by measuring Amplex Red fluorescence using 10-20× concentrated conditioned media from CHO cells stably expressing human LOXL2. To assay for amine oxidase activity, 10 μL of the concentrated conditioned media is incubated with 2 μL of test compound in DMSO and 73 μL Assay Buffer (50 mM Borate Buffer, pH8) for 2 h at 37° C. After the 2 h incubation, 5 μl of 10 mM 1,5-Diaminopentane (DAP) diluted in Assay Buffer and 10 μl of Amplex Red Mix (8.5 μl Assay Buffer+0.5 μl of 10 mM Amplex Red+1 μl of 500 U/ml Horseradish Peroxidase) are added and the plate mixed and immediately placed on the FlexStaion for fluorescence measurements. Fluorescence is read in kinetic mode every 2 min for 1 hour at excitation=544 and emission=590. The amine oxidase activity is calculated from the slope of the linear portion of the curve.

Where [1] appears, read: concentrated conditioned media from CHO cells stably expressing human LOXL2, read-out: IC50.

SMILES strings stand for the structures. pIC50: −log10 of the molar value. Structures can show the parent of a compound that is named as a salt. Where two headings read alike, the source gives them in different places.

Sequence of human LOXL2 (Q9Y4K0 26-774): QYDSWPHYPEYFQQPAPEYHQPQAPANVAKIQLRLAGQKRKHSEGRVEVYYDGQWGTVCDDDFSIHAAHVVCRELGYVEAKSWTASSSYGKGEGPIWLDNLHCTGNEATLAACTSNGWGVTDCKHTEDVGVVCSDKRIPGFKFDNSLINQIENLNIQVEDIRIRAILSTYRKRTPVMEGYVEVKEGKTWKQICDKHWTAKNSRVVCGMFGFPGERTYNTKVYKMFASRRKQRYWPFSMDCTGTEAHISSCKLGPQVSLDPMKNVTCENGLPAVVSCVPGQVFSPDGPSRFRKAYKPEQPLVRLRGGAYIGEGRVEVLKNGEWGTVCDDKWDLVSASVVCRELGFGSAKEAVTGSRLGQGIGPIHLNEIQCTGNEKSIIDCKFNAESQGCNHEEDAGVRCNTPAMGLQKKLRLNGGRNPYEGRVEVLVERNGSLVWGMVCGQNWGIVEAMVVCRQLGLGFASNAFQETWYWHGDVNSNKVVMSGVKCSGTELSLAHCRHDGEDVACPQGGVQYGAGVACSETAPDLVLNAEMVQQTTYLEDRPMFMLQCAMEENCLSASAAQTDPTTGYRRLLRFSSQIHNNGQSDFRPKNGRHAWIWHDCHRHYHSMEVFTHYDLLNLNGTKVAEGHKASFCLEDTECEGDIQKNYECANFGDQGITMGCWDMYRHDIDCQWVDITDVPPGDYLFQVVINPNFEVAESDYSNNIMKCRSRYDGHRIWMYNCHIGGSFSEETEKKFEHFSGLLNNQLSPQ

Regarding `NCc1ccnc(Oc2cccc3[nH]ccc23)c1` [Compound 2-32, (2-((1H-Indol-4-yl)oxy)pyridin-4-yl)methanamine trifluoroacetate], the negative-log IC50 (pIC50) (commonly −log10 of the IC50, conventionally taken in molar units) under setting [1] was over 6.52. Consider `NCc1ccnc(Oc2cccc3c2CCN3c2nc3ccc(F)cc3s2)c1` [Compound 2-33, (2-((1-(6-Fluorobenzo[d]thiazol-2-yl)indolin-4-yl)oxy)pyridin-4-yl)methanamine hydrochloride], for which the negative logarithm of the IC50 (pIC50) under setting [1] was over 6.52. The same measure, in the same setting: then `Cc1nn(Cc2ccc(F)cc2F)c2cccc(Oc3cc(CN)ccn3)c12` [Compound 2-35, (2-((1-(2,4-Difluorobenzyl)-3-methyl-1H-indazol-4-yl)oxy)pyridin-4-yl)methanamine trifluoroacetate], with over 6.52; and `NCc1ccnc(Oc2cccc3c2CCC(=O)N3Cc2ccc(F)cc2F)c1` [Compound 2-36, 5-((4-(Aminomethyl)pyridin-2-yl)oxy)-1-(2,4-difluorobenzyl)-3,4-dihydroquinolin-2(1H)-one hydrochloride], with over 6.52; and `COc1ccc(CN2C(=O)CCc3c(Oc4cc(CN)ccn4)cccc32)cn1` [Compound 2-37, 5-((4-(Aminomethyl)pyridin-2-yl)oxy)-1-((6-methoxypyridin-3-yl)methyl)-3,4-dihydroquinolin-2(1H)-one acetate], with over 6.52. On the same count and under the same terms, then `NCc1ccnc(O[C@H]2CCCN(C(=O)c3ccccc3)C2)c1` [Compound 2-38, (S)-(3-((4-(Aminomethyl)pyridin-2-yl)oxy)piperidin-1-yl)(phenyl)methanone trifluoroacetate], with over 6.52; and `NCc1ccnc(O[C@H]2CCCN(C(=O)Nc3ccccc3)C2)c1` [Compound 2-39, (A)-3-((4-(Aminomethyl)pyridin-2-yl)oxy)-N-phenylpiperidine-1-carboxamide trifluoroacetate], with over 6.52. As for `Cc1ccc(C(=O)Nc2cc(CN)ccn2)c(F)c1` [Compound 2-42, N-(4-(Aminomethyl)pyridin-2-yl)-2-fluoro-4-methylbenzamide trifluoroacetate], the pIC50 under setting [1] was 6.00 to 6.52. Still for that read-out and setting: then `NCc1ccnc(NC(=O)Cc2ccc(Cl)c(Cl)c2)c1` [Compound 2-43, N-(4-(Aminomethyl)pyridin-2-yl)-2-(3,4-dichlorophenyl)acetamide trifluoroacetate], with 6.00 to 6.52. The same measure, in the same setting: then `CN(C)c1cc(CN)cc(Oc2cccc(Oc3ccccc3)c2)n1` [Compound 3-1, 4-(Aminomethyl)-N,N-dimethyl-6-(3-phenoxyphenoxy)pyridin-2-amine hydrochloride], with under 6.00. Take `COCCNc1cc(CN)cc(Oc2cccc(Oc3ccccc3)c2)n1` [Compound 3-2, 4-(Aminomethyl)-N-(2-methoxyethyl)-6-(3-phenoxyphenoxy)pyridin-2-amine trifluoroacetate]: under setting [1], the pIC50 is 6.00 to 6.52. The same measure, in the same setting: next, `NCc1cc(Oc2cccc(Oc3ccccc3)c2)nc(-c2ccc(F)cc2)c1` [Compound 3-3, (2-(4-Fluorophenyl)-6-(3-phenoxyphenoxy)pyridin-4-yl)methanamine trifluoroacetate]: 6.00 to 6.52; `NCc1cccnc1F` [Compound 4-1, 2-Fluoro-3-(aminomethyl)pyridine]: under 6.00. The same measure, in the same setting: next, `NCc1ccncc1F` [Compound 4-2, 3-Fluoro-4-(aminomethyl)pyridine]: 6.00 to 6.52; `NCc1ccnc(F)c1` [Compound 4-3, 2-Fluoro-4-(aminomethyl)pyridine]: 6.00 to 6.52; `NCc1ccnc(Cl)c1` [Compound 4-5, 2-Chloro-4-(aminomethyl)pyridine]: over 6.52. The same measure, in the same setting: next, `NCc1ccnc(OCc2ccccc2)c1` [Compound 4-6, 2-Benzyloxy-4-(aminomethyl)pyridine]: under 6.00. On to `NCc1ccnc(OC2CCCCC2)c1` [Compound 4-7, 2-Cyclohexyloxy-4-(aminomethyl)pyridine], for which the pIC50 under setting [1] was over 6.52. Still for that read-out and setting: next, `NCc1ccnc(Oc2ccc(F)cc2)c1` [Compound 4-8, 2-(4-Fluorophenoxy)-4-(aminomethyl)pyridine]: over 6.52; `NCc1ccnc(Oc2ccccc2C(F)(F)F)c1` [Compound 4-9, 2-(2-Trifluoromethylphenoxy)-4-(aminomethyl)pyridine]: over 6.52. Consider `NCc1ccnc(N2CCCC2)c1` [Compound 4-10, 2-(1-Pyrrolidino)-4-(aminomethyl)pyridine], for which, under setting [1], the pIC50 was under 6.00. On to `NCc1ccnc(-n2ccnc2)c1` [Compound 4-11, 2-(Imidazol-1-yl)-4-(aminomethyl)pyridine], for which, under setting [1], the pIC50 was over 6.52. Still for that read-out and setting: then `CCN1CCN(c2cc(CN)ccn2)CC1` [Compound 4-12, 2-(4-Ethylpiperazin-1-yl)-4-(aminomethyl)pyridine], with under 6.00; and `COCCNC(=O)c1cc(CN)ccn1` [Compound 4-13, 4-(Aminomethyl)-N-(2-methoxyethyl)picolinamide hydrochloride], with over 6.52.

In turn, `NCc1ccnc(NC(=O)CC(F)(F)F)c1` [Compound 4-14, trifluoroacetate] gave a pIC50 (IC50, concentrated conditioned media from CHO cells stably expressing human LOXL2) of 6.00 to 6.52.
